Experimental data taken from US8895695B2, “Template-fixed beta-hairpin peptidomimetics with CXCR4 antagonizing activity” (priority 2003, dated 2014).
Where two headings read alike, the source gives them in different places. Numbered stars: 1 amine (or outer) side, 2 acyl side, 3 side chain; on linkers, the order of the positions; unused ones are H or OH. Bridge positions count the residues as written; N and C are the ends. Square brackets hold non-standard residues; d marks the D form. Peptide text beside a SMILES is read from it. X3 = COCCOCCOCC(=O)N[C@H]1C[C@@H](C(=O)[*:2])N([*:1])C1; Phe(4-F) = N[C@@H](Cc1ccc(F)cc1)C(=O)O; 2Nal = N[C@@H](Cc1ccc2ccccc2c1)C(=O)O; Cit = NC(=O)NCCC[C@H](N)C(=O)O

Legend:
CXCR4 = CXCR4 (Homo sapiens, UniProt P61073); experiment: Ca2+-assay method 2 (Flexstation, SDF-1 induced calcium mobilization); format: cell-based; parameters: expressed in transfected cells; host or cells: mouse pre-B cell line 300-19; details: method 2 (Ex. 54-160), mouse pre-B cell line 300-19 with human CXCR4, 10 nM SDF-1
in vitro = details: human
Description: Each peptide concentration was assayed in triplicate. […] Wells were then washed once with PBS and subsequently 100 μl MTT reagent (0.5 mg/mL in medium RPMI1640 and, respectively, DMEM) was added to the wells. This was incubated at 37° C. for 2 hours and subsequently the medium was aspirated and 100 μl isopropanol was added to each well. […] For each concentration averages were calculated from triplicates. The percentage of growth was calculated as follows: (OD595peptide-OD595Tz-OD595Empty well)/(OD595Tz-OD595Empty well)×100% and was plotted for each peptide concentration.
‘CCR5’ cells were cultured in DMEM medium with 4500 mg/ml glucose, 10% fetal bovine serum (FBS), supplemented with 50 U/ml Penicillin and 50 μg/ml Streptomycin (Pen/Strept.). Hut/4-3 cells were maintained in RPMI medium, 10% FBS, supplemented with Pen/Strept. and 10 mM HEPES. HELA cells and CCRF-CEM cells were maintained in RPMI1640 plus 5% FBS, Pen/Strept and 2 mM L-Glutamine. Cos-7 cells were grown in DMEM medium with 4500 mg/ml glucose supplemented with 10% FCS, Pen/Strept. and 2 mM L-Glutamine. All cell lines were grown at 37° C. at 5% CO2.

[1] = system: human red blood cells (hRBC); experiment: Hemolysis; format: cell-based
In short: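 Percent lysis taken as OD540 of peptide-treated sample over OD540 of the water/0.1% Triton X-100 full-lysis control, with PBS giving 0%. Peptides at 100 μM exposed to PBS-washed human RBCs (20% v/v) for 1 hour at 37° C. before centrifugation and 20-fold dilution of supernatant.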

[2] = read-out: IC50 (nM) Ca^2+ assay
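For GI50 in this document: MTT reduction read as absorbance at 595 nm, blank-corrected and expressed as percent growth relative to the time-zero cell reading, triplicate wells per concentration.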

CXCR4, sequence (P61073 whole entry): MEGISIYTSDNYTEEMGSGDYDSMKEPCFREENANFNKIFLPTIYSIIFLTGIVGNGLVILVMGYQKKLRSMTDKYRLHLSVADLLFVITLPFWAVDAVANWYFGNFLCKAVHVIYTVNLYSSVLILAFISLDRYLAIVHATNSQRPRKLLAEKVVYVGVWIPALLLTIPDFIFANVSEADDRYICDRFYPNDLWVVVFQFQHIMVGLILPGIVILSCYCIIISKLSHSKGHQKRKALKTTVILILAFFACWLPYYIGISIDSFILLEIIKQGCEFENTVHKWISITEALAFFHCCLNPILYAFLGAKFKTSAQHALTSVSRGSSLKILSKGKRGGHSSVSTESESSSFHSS

| Structure (SMILES) | IC50 (CXCR4; [2]) [nM] | GI50 at 48 h (in vitro) [µM] | Hemolysis at 100 μM [1] [%] | IC50 (CXCR4; IC50 (nM) Ca^2+ assay) [nM] | Hemolysis at 100 μM ([1]; percent hemolysis, 100 μM peptide, 20% v/v hRBC, 1 hour at 37° C.) [%] |
| --- | --- | --- | --- | --- | --- |
| N=C(N)NCCC[C@@H]1NC(=O)[C@@H]2CSSC[C@H](NC(=O)[C@H](Cc3c[nH]c4ccccc34)NC(=O)[C@H](CCCNC(=N)N)NC(=O)[C@H](Cc3ccc(F)cc3)NC(=O)[C@H]3CCCN3C(=O)CNC1=O)C(=O)N[C@@H](Cc1ccc(O)cc1)C(=O)N[C@@H](CCCNC(N)=O)C(=O)N[C@@H](CCCCN)C(=O)N1CCC[C@@H]1C(=O)N1CCC[C@H]1C(=O)N[C@@H](Cc1ccc(O)cc1)C(=O)N[C@@H](CCCNC(=N)N)C(=O)N[C@@H](CCCNC(N)=O)C(=O)N2 [Ex. 122] (cyclo(YR[Cit]CRG[dP][Phe(4-F)]RWCY[Cit]K[dP]P); disulfide 4-11) | 8.8 | 60 | 0 | – | – |
| N=C(N)NCCC[C@@H]1NC(=O)[C@@H]2CSSC[C@H](NC(=O)[C@H](Cc3ccc4ccccc4c3)NC(=O)[C@H](CCCNC(=N)N)NC(=O)[C@H](CCCNC(=N)N)NC(=O)[C@H]3CCCN3C(=O)CNC1=O)C(=O)N[C@@H](Cc1ccc(O)cc1)C(=O)N[C@@H](CCC(N)=O)C(=O)N[C@@H](CCCCN)C(=O)N1CCC[C@@H]1C(=O)N1CCC[C@H]1C(=O)N[C@@H](Cc1c[nH]cn1)C(=O)N[C@@H](CCCNC(=N)N)C(=O)N[C@@H](CCCNC(N)=O)C(=O)N2 [Ex. 64] (cyclo(HR[Cit]CRG[dP]RR[2Nal]CYQK[dP]P); disulfide 4-11) | 3.3 | 66 | 0.3 | – | – |
| N=C(N)NCCC[C@@H]1NC(=O)[C@@H]2CSSC[C@H](NC(=O)[C@H](Cc3ccc4ccccc4c3)NC(=O)[C@H](CCCNC(=N)N)NC(=O)[C@H](CCCNC(=N)N)NC(=O)[C@H]3CCCN3C(=O)CNC1=O)C(=O)N[C@@H](Cc1ccc(O)cc1)C(=O)N[C@@H](CC(=O)O)C(=O)N[C@@H](CCCCN)C(=O)N1CCC[C@@H]1C(=O)N1CCC[C@H]1C(=O)N[C@@H](Cc1ccc(O)cc1)C(=O)N[C@@H](CCCNC(=N)N)C(=O)N[C@@H](CCCNC(N)=O)C(=O)N2 [Ex. 78] (cyclo(YR[Cit]CRG[dP]RR[2Nal]CYDK[dP]P); disulfide 4-11) | 11 | 69 | 0.1 | – | – |
| N=C(N)NCCC[C@@H]1NC(=O)[C@@H]2CSSC[C@H](NC(=O)[C@H](Cc3c[nH]c4ccccc34)NC(=O)[C@H](CCCNC(=N)N)NC(=O)[C@H](CCCNC(=N)N)NC(=O)[C@H]3CCCN3C(=O)CNC1=O)C(=O)N[C@@H](Cc1ccc(O)cc1)C(=O)N[C@@H](CCCNC(N)=O)C(=O)N[C@@H](CCCCN)C(=O)N1CCC[C@@H]1C(=O)N1CCC[C@H]1C(=O)N[C@@H](Cc1ccccc1)C(=O)N[C@@H](CCCNC(=N)N)C(=O)N[C@@H](CCCNC(N)=O)C(=O)N2 [Ex. 107] (cyclo(FR[Cit]CRG[dP]RRWCY[Cit]K[dP]P); disulfide 4-11) | 3.8 | 50 | 0.4 | – | – |
| CC(C)[C@@H]1NC(=O)[C@@H]2CCCN2C(=O)[C@H]2CCCN2C(=O)[C@H](CCCCN)NC(=O)[C@H](CCC(N)=O)NC(=O)[C@H](Cc2ccc(O)cc2)NC(=O)[C@@H]2CSSC[C@H](NC(=O)[C@H](CCCNC(N)=O)NC(=O)[C@H](CCCNC(=N)N)NC1=O)C(=O)N[C@@H](CCCNC(=N)N)C(=O)NCC(=O)N1CCC[C@@H]1C(=O)N[C@@H](CCCNC(=N)N)C(=O)N[C@@H](CCCNC(=N)N)C(=O)N[C@@H](Cc1ccc3ccccc3c1)C(=O)N2 [Ex. 90] (cyclo(VR[Cit]CRG[dP]RR[2Nal]CYQK[dP]P); disulfide 4-11) | 19.5 | 57 | 0.1 | – | – |
| C[C@@H](O)[C@@H]1NC(=O)[C@H](CCCNC(=N)N)NC(=O)[C@H](Cc2ccc(O)cc2)NC(=O)[C@@H]2CCCN2C(=O)[C@H]2CCCN2C(=O)[C@H](CCCCN)NC(=O)[C@H](CCC(N)=O)NC(=O)[C@H](Cc2ccc(O)cc2)NC(=O)[C@@H]2CSSC[C@H](NC1=O)C(=O)N[C@@H](CCCNC(=N)N)C(=O)NCC(=O)N1CCC[C@@H]1C(=O)N[C@@H](CCCNC(=N)N)C(=O)N[C@@H](CCCNC(=N)N)C(=O)N[C@@H](Cc1ccc(O)cc1)C(=O)N2 [Ex. 145] (cyclo(YRTCRG[dP]RRYCYQK[dP]P); disulfide 4-11) | 0.38 | 97 | 0 | – | – |
| C[C@@H]1NC(=O)[C@H](Cc2ccc(O)cc2)NC(=O)[C@@H]2CSSC[C@H](NC(=O)[C@H](CCCNC(N)=O)NC(=O)[C@H](CCCNC(=N)N)NC(=O)[C@H](Cc3ccc(O)cc3)NC(=O)[C@@H]3CCCN3C(=O)[C@H]3CCCN3C(=O)[C@H](CCCCN)NC1=O)C(=O)N[C@@H](CCCNC(=N)N)C(=O)NCC(=O)N1CCC[C@@H]1C(=O)N[C@@H](CCCNC(=N)N)C(=O)N[C@@H](CCCNC(=N)N)C(=O)N[C@@H](Cc1ccc3ccccc3c1)C(=O)N2 [Ex. 80] (cyclo(YR[Cit]CRG[dP]RR[2Nal]CYAK[dP]P); disulfide 4-11) | 2.9 | 44 | 0.1 | – | – |
| N=C(N)NCCC[C@@H]1NC(=O)[C@@H]2CSSC[C@H](NC(=O)[C@H](Cc3ccc4ccccc4c3)NC(=O)[C@H](CCCNC(=N)N)NC(=O)[C@H](CCCNC(=N)N)NC(=O)[C@H]3CCCN3C(=O)CNC1=O)C(=O)N[C@@H](Cc1ccc(O)cc1)C(=O)N[C@@H](CCC(N)=O)C(=O)N[C@@H](CCCCN)C(=O)N1CCC[C@@H]1C(=O)N1CCC[C@H]1C(=O)N[C@@H](Cc1ccc(O)cc1)C(=O)N[C@@H](CCCNC(=N)N)C(=O)N[C@@H](Cc1ccc(O)cc1)C(=O)N2 [Ex. 72] (cyclo(YRYCRG[dP]RR[2Nal]CYQK[dP]P); disulfide 4-11) | 3.9 | 36 | 0.5 | – | – |
| N=C(N)NCCC[C@@H]1NC(=O)[C@@H]2CSSC[C@H](NC(=O)[C@H](Cc3c[nH]c4ccccc34)NC(=O)[C@H](CCCNC(=N)N)NC(=O)[C@H](CCCNC(=N)N)NC(=O)[C@H]3CCCN3C(=O)CNC1=O)C(=O)N[C@@H](Cc1ccc(O)cc1)C(=O)N[C@@H](CCCNC(N)=O)C(=O)N[C@@H](CCCCN)C(=O)N1CCC[C@@H]1C(=O)N1CCC[C@H]1C(=O)N[C@@H](Cc1ccc(O)cc1)C(=O)N[C@@H](CCCCN)C(=O)N[C@@H](CCCNC(N)=O)C(=O)N2 [Ex. 106] (cyclo(YK[Cit]CRG[dP]RRWCY[Cit]K[dP]P); disulfide 4-11) | 3.1 | 83 | 0 | – | – |
| CSCC[C@@H]1NC(=O)[C@H](CCCNC(=N)N)NC(=O)[C@H](Cc2ccc(O)cc2)NC(=O)[C@@H]2CCCN2C(=O)[C@H]2CCCN2C(=O)[C@H](CCCCN)NC(=O)[C@H](CCC(N)=O)NC(=O)[C@H](Cc2ccc(O)cc2)NC(=O)[C@@H]2CSSC[C@H](NC1=O)C(=O)N[C@@H](CCCNC(=N)N)C(=O)NCC(=O)N1CCC[C@@H]1C(=O)N[C@@H](CCCNC(=N)N)C(=O)N[C@@H](CCCNC(=N)N)C(=O)N[C@@H](Cc1ccc3ccccc3c1)C(=O)N2 [Ex. 100] (cyclo(YRMCRG[dP]RR[2Nal]CYQK[dP]P); disulfide 4-11) | 7 | 43 | 0.8 | – | – |
| COCCOCCOCC(=O)N[C@H]1C[C@H]2C(=O)N[C@@H](Cc3ccc(O)cc3)C(=O)N[C@@H](CCCNC(=N)N)C(=O)N[C@@H](CCCNC(N)=O)C(=O)N[C@H]3CSSC[C@H](NC(=O)[C@H](Cc4c[nH]c5ccccc45)NC(=O)[C@H](CCCNC(=N)N)NC(=O)[C@H](CCCNC(=N)N)NC(=O)[C@H]4CCCN4C(=O)CNC(=O)[C@H](CCCNC(=N)N)NC3=O)C(=O)N[C@@H](Cc3ccc(O)cc3)C(=O)N[C@@H](CCCNC(N)=O)C(=O)N[C@@H](CCCCN)C(=O)N3CCC[C@@H]3C(=O)N2C1 [Ex. 116] (cyclo(YR[Cit]CRG[dP]RRWCY[Cit]K[dP][X3]); disulfide 4-11) | – | 20 | – | 14.5 | 0 |
| N=C(N)NCCC[C@@H]1NC(=O)[C@@H]2CSSC[C@H](NC(=O)[C@H](Cc3ccc4ccccc4c3)NC(=O)[C@H](CCCNC(=N)N)NC(=O)[C@H](CCCNC(=N)N)NC(=O)[C@H]3CCCN3C(=O)CNC1=O)C(=O)N[C@@H](Cc1ccc(O)cc1)C(=O)N[C@@H](CCC(N)=O)C(=O)N[C@@H](CCCCN)C(=O)N1CCC[C@@H]1C(=O)N1CCC[C@H]1C(=O)N[C@@H](CO)C(=O)N[C@@H](CCCNC(=N)N)C(=O)N[C@@H](CCCNC(N)=O)C(=O)N2 [Ex. 89] (cyclo(SR[Cit]CRG[dP]RR[2Nal]CYQK[dP]P); disulfide 4-11) | 0.5 | 50 | 0 | – | – |
| N=C(N)NCCC[C@@H]1NC(=O)[C@@H]2CSSC[C@H](NC(=O)[C@H](Cc3ccc4ccccc4c3)NC(=O)[C@H](CCCNC(=N)N)NC(=O)[C@H](CCCNC(=N)N)NC(=O)[C@H]3CCCN3C(=O)CNC1=O)C(=O)N[C@@H](Cc1ccc(O)cc1)C(=O)N[C@@H](CCC(N)=O)C(=O)N[C@@H](CCCCN)C(=O)N1CCC[C@@H]1C(=O)N1CCC[C@H]1C(=O)N[C@@H](Cc1c[nH]c3ccccc13)C(=O)N[C@@H](CCCNC(=N)N)C(=O)N[C@@H](CCCNC(N)=O)C(=O)N2 [Ex. 66] (cyclo(WR[Cit]CRG[dP]RR[2Nal]CYQK[dP]P); disulfide 4-11) | 3.8 | 46 | 0 | – | – |
| C[C@@H](O)[C@@H]1NC(=O)[C@@H]2CCCN2C(=O)[C@H]2CCCN2C(=O)[C@H](CCCCN)NC(=O)[C@H](CCC(N)=O)NC(=O)[C@H](Cc2ccc(O)cc2)NC(=O)[C@@H]2CSSC[C@H](NC(=O)[C@H](CCCNC(N)=O)NC(=O)[C@H](CCCNC(=N)N)NC1=O)C(=O)N[C@@H](CCCNC(=N)N)C(=O)NCC(=O)N1CCC[C@@H]1C(=O)N[C@@H](CCCNC(=N)N)C(=O)N[C@@H](CCCNC(=N)N)C(=O)N[C@@H](Cc1ccc3ccccc3c1)C(=O)N2 [Ex. 67] (cyclo(TR[Cit]CRG[dP]RR[2Nal]CYQK[dP]P); disulfide 4-11) | 2.4 | 49 | 0.2 | – | – |
